# Laboratory results taken from ChEMBL document CHEMBL1201862, “PubChem BioAssay data set” (2004).
# Active and inactive are the calls of the source.
# Legend:
# [1] = biological target: Cytochrome P450 2C19 (Homo sapiens, UniProt P33261); assay: Cytochrome panel assay with activity outcomes. Panel member name: p450-cyp2c19 Compounds with AC50 equal or less than 10 uM are considered active; type: functional
# [2] = biological target: T1, Replicative DNA helicase DnaB (Mycobacterium tuberculosis, UniProt P9WMR3); assay: DnaB intein splicing inhibitors, dose response, biochemical, cell-free fluorescence (AID 449749); type: functional
# T1 sequence (P9WMR3 whole entry): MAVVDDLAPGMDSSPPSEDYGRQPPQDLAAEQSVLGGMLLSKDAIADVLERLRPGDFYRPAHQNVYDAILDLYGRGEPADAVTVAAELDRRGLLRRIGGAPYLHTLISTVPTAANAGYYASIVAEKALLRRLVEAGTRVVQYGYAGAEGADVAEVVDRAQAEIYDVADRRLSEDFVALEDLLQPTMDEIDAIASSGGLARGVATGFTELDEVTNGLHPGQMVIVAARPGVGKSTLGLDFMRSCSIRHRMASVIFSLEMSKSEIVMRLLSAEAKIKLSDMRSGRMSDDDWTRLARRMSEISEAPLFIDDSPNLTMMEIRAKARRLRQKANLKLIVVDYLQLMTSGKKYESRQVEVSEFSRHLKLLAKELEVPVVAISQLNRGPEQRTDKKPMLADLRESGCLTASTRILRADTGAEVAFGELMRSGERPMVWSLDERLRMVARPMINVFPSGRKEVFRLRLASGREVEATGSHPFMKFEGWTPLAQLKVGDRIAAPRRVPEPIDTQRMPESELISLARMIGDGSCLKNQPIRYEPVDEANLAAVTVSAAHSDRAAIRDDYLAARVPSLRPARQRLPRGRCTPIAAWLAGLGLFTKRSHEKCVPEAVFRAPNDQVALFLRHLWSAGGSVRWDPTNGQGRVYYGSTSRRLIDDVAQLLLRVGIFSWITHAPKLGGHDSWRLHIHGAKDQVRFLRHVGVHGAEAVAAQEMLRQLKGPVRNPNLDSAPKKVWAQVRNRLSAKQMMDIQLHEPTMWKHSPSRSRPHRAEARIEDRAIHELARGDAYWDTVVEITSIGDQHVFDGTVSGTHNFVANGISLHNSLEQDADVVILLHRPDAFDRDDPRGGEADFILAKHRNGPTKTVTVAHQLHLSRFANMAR
# [3] = biological target: T2, Protein RecA (Mycobacterium tuberculosis, UniProt P9WHJ3); assay: Fluorescence Cell-Free Homogeneous Dose Retest to Identify Inhibitors of RecA-Intein Splicing Activity. [Related pubchem assays (depositor defined):AID2097, AID2223, AID489010, AID492950]; type: functional
# T2 sequence (P9WHJ3 whole entry): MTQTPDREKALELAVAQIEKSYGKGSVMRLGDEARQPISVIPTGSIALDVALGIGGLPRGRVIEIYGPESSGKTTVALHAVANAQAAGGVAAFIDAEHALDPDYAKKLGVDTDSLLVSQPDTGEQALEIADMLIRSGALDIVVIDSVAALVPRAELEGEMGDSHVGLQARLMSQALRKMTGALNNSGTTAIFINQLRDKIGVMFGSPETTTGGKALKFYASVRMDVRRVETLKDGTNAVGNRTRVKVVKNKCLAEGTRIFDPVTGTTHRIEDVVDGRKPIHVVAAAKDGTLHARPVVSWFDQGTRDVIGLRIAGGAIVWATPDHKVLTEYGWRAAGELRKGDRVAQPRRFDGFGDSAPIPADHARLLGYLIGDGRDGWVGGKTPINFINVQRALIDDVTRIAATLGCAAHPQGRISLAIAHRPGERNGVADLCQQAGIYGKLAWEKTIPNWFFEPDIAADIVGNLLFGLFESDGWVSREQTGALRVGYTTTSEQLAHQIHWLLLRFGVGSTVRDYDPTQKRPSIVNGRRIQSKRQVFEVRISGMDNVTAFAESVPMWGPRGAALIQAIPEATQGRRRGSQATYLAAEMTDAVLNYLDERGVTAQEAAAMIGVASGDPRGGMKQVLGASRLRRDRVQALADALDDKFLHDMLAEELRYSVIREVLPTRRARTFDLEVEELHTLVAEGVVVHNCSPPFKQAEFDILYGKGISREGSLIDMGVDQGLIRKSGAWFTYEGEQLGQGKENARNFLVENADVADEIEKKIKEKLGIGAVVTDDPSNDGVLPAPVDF
# [4] = tested on: Streptococcus sp. 'group A'; assay: Streptococcus pyogenes SK(-)GAS viability under kanamycin – luminescence, BacTiterGlo, confirmation, counter-screen for streptokinase expression inhibitor project, dose response (AID 1900); type: functional, organism-based
# [5] = biological target: T3, Streptokinase A (Streptococcus pyogenes serotype M1, UniProt P10520); assay: viability-normalized secreted streptokinase activity reduction – plasminogen activation absorbance, OD405, dose response (AID 1914); type: functional, Streptococcus pyogenes M1 GAS;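 also: secreted streptokinase activity via plasminogen activation per viability signal from cell pellet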
# T3 sequence (P10520 whole entry): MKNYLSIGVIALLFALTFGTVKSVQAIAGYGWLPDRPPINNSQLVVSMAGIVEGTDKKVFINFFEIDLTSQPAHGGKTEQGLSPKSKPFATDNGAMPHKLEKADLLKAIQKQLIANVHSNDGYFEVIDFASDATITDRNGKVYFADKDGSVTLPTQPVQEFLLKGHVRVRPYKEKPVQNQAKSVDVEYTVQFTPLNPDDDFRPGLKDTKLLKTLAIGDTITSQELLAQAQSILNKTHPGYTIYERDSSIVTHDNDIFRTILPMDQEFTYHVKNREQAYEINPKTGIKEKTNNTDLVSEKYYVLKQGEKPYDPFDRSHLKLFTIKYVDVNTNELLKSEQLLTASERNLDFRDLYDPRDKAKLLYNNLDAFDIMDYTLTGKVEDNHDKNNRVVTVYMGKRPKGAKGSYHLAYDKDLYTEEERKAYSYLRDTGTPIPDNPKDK
# [6] = tested on: Streptococcus; assay: GAS UMAA2166 growth inhibition – luminescence, BacTiterGlo, counter-screen for streptokinase expression inhibitor project, dose response (AID 1915); type: functional, organism-based;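 also: potency for reduction of bacterial viability or growth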
# [7] = Trypanosoma cruzi growth suppression in host cells – NIH3T3 host cells, beta-gal luminescence, confirmation (AID 2044); type: functional, cell-based;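 also: intracellular parasites grown in NIH/3T3 mouse fibroblasts as host cells; luminescent beta-galactosidase reporter signal from transgenic T. cruzi replicating inside host cells; inhibitors lower the luminescence signal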
# [8] = NIH3T3 cell viability loss – ATP luminescence, mouse fibroblasts, counter-screen, dose response (AID 2010); type: functional, cell-based;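 also: cells exposed to compound for about 90 hours before reading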
# [9] = biological target: Cytochrome P450 3A4 (Homo sapiens, UniProt P08684);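 also: CYP3A4 tested as one member of a cytochrome P450 panel screen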
# Chain of Cytochrome P450 3A4 (P08684 whole entry): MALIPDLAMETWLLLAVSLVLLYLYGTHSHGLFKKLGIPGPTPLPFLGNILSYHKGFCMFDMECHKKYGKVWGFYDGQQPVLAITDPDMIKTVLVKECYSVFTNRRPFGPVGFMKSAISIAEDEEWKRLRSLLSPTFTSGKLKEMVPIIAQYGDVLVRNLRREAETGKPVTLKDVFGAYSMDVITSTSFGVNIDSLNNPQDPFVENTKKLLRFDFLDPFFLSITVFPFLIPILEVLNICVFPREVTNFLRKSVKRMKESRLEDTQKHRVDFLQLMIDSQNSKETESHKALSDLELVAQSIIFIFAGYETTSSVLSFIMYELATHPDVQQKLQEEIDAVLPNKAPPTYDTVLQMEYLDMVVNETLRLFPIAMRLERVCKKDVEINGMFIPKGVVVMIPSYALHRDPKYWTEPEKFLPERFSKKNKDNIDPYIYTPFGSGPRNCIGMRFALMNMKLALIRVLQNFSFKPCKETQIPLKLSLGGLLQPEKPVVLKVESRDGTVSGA
# Chain of Cytochrome P450 2C19 (P33261 whole entry): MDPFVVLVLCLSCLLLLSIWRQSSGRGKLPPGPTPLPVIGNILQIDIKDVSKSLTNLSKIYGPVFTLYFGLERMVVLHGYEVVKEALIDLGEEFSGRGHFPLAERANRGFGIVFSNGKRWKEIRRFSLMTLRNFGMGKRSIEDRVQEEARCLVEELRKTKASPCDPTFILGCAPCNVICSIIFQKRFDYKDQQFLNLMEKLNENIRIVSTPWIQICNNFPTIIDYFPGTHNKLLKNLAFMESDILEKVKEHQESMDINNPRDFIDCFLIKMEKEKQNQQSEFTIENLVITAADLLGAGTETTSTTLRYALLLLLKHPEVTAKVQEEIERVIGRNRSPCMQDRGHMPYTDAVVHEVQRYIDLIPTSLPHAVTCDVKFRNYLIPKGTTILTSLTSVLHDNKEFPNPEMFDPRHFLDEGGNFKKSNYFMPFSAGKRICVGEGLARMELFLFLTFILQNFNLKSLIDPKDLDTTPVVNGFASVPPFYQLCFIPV
smiles,measurement,setting,value
c1ccc(C2CCC(N3CCC(N4CCCCC4)CC3)CC2)cc1 (stereo not given),AC50,[1]; read-out: AC50,31.6 µM (inconclusive)
COc1ccc(Nc2oc(COc3ccccc3F)nc2C#N)cc1,AC50,[2],19.9 µM (active)
same,EC50,[3],2.44 µM (active)
O=C(O)CC/C(=C\c1cc2c(cc1Br)OCO2)c1nc2ccccc2s1,EC50,[4],5.71 µM (active)
same,EC50,[5],56 µM (active)
same,EC50,[6],> 150 µM (not active)
Cc1ccccc1N1CCN(S(=O)(=O)c2nnc(NC(=O)c3ccco3)s2)CC1,EC50,[4],11 µM (active)
same,EC50,[5],5.16 µM (active)
same,EC50,[6],41.7 µM (active)
CC(C)C[C@@H](C(=O)NC1CCN(Cc2ccccc2)CC1)N1C(=O)N2CCc3c([nH]c4ccccc34)[C@@]2(C)C1=O,EC50,[7],6.88 µM (active)
same,EC50,[8],5.05 µM (active)
COc1cccc(C(Nc2ccccn2)c2c(NC(=O)c3ccco3)sc(C)c2C)c1 (stereo not given),EC50,[7],2.53 µM (active)
same,EC50,[8],> 60 µM (not active)
Cc1cccc(CSC2=NCCN2S(=O)(=O)c2ccc(F)cc2)c1,EC50,[4],41.8 µM (active)
same,EC50,[5],23.2 µM (active)
same,EC50,[6],> 150 µM (not active)
CCOc1ccc(CCNC(=O)C(CC)n2nc(C)n3c(cc4sccc43)c2=O)cc1OCC (stereo not given),EC50,[7],1.31 µM (active)
same,EC50,[8],> 60 µM (not active)
CC(C)(C)c1cc(C(=O)CCN2CCOCC2)cc(C(C)(C)C)c1O,AC50,[2],129 µM (active)
same,EC50,[3],16.8 µM (active)
COc1ccc(COC(=O)N/N=C2/C[C@@H](O)[C@@H](O)[C@@H]3[C@@H]4C(=O)N([C@@H](C)c5ccccc5)C(=O)[C@H]4CC[C@@H]23)cc1,AC50,[9],3.98 µM (inconclusive)
Cn1c(=O)c2nc(CCCCc3nc4c(=O)n(C)c(=S)n(C)c4[nH]3)[nH]c2n(C)c1=S,AC50,[1],inconclusive
CN(CCOc1ccccc1)CC(=O)Nc1ccc(S(=O)(=O)N2CCCC2)cc1,EC50,[7],0.695 µM (active)
same,EC50,[8],> 60 µM (not active)
CCOc1ccc2oc(C(=O)NC3CCN(Cc4ccccc4)CC3)c(C)c2c1,EC50,[7],2 µM (active)
same,EC50,[8],> 60 µM (not active)
Cc1ccc(S(=O)(=O)NCc2cccc([N+](=O)[O-])c2)cc1,AC50,[1]; read-out: AC50,2.51 µM (inconclusive)
CC(NCc1ccncc1)C12CC3CC(CC(C3)C1)C2 (stereo not given),EC50,[7],> 60 µM (not active)
same,EC50,[8],> 60 µM (not active)
Cc1c(C(=O)NN)nn(-c2ccc(Cl)cc2)c(=O)c1C#N,AC50,[2],79.8 µM (active)
same,EC50,[3],8.06 µM (active)
C#C[C@]1(O)CC[C@@H]2[C@H]3CCc4cc(OC)ccc4[C@@H]3CC[C@@]21C,AC50,[1]; read-out: AC50,1.26 µM (inconclusive)
CC[C@H]1C2=C3C(CC[C@H]4C(OCc5ccc(F)cc5C(F)(F)F)OC[C@](C)([C@@H]34)N(C(=O)OC(C)(C)C)C2)C2COC(=O)OCC21 (stereo not given in full),AC50,[1]; read-out: AC50,39.8 µM (inconclusive)
OC(CN1CCN(Cc2ccccc2)CC1)c1ccc(Br)cc1 (stereo not given),EC50,[7],0.324 µM (active)
same,EC50,[8],10 µM (active)
Cc1ccc(C(=O)Nc2nc(-c3ccccc3)c(-c3ccccc3)o2)cc1,EC50,[4],1.27 µM (active)
same,EC50,[7],2.48 µM (active)
same,EC50,[8],> 60 µM (not active)
same,EC50,[6],2.36 µM (active)
Cc1c(C(=O)N2CCN(S(=O)(=O)c3ccc(F)cc3)CC2)oc2ccccc12,EC50,[7],0.447 µM (active)
same,EC50,[8],> 60 µM (not active)
COC(=O)NCC(c1cccnc1)N1CCN(c2ccccc2OC)CC1 (stereo not given),AC50,[1]; read-out: AC50,11.2 µM (inconclusive)
CC(C)C(NC(=O)C(c1ccccc1)c1ccccc1)c1nc2ccccc2[nH]1 (stereo not given),EC50,[4],1.87 µM (active)
same,EC50,[5],> 150 µM (not active)
same,EC50,[6],16 µM (active)
Cc1ccc(NC(=O)NCCCc2ccccc2)cc1,AC50,[9],7.94 µM (inconclusive)
COc1ccc(C(=O)NNC(=S)NC(=O)c2ccco2)cc1,EC50,[4],2.98 µM (active)
same,EC50,[5],> 150 µM (not active)
same,EC50,[6],12 µM (active)
CCCCN(CCCC)c1cc(C)nc(-c2ccccc2O)n1,EC50,[4],19.7 µM (active)
same,EC50,[5],5.4 µM (active)
same,EC50,[6],> 150 µM (not active)
CCCC[C@@H]1C[C@H]1C(NC(=O)c1cccs1)c1ccc(C(F)(F)F)cc1 (stereo not given in full),AC50,[1],inconclusive
COc1cc(C(c2c(C)n[nH]c2O)c2c(C)n[nH]c2O)ccc1OC(C)C,AC50,[2],0.318 µM (active)
same,EC50,[3],0.223 µM (active)
Cc1cc(Cl)c(OCCOCCN2CCCC(C)C2)c(Br)c1 (stereo not given),EC50,[7],0.393 µM (active)
same,EC50,[8],> 60 µM (not active)
COc1ccc(N2C(=O)C(Cl)=C(N3CCN(Cc4ccccc4)CC3)C2=O)cc1,AC50,[2],8.12 µM (active)
same,EC50,[3],1.67 µM (active)
COCC(=O)N1CCC[C@@]2(CCN(Cc3nccs3)C2)C1,AC50,[9],20 µM (inconclusive)
O=c1oc(-c2ccccc2Cl)nc2ccsc12,AC50,[2],14 µM (active)
same,EC50,[3],23.3 µM (active)
CN(C)CCCOc1ccc(Cl)cc1Br,EC50,[7],0.535 µM (active)
same,EC50,[8],> 60 µM (not active)
O=C(COc1ccccc1)Nc1nnc(-c2ccccc2Cl)o1,EC50,[4],> 150 µM (not active)
same,EC50,[5],> 150 µM (not active)
same,EC50,[6],> 150 µM (not active)
COc1ccccc1N=C(S)N(Cc1ccc(C)cc1)Cc1ccccn1,EC50,[7],1.55 µM (active)
same,EC50,[8],> 60 µM (not active)
CN(C)CCCNC(=O)c1cc2c3ccccc3n(C)c2s1,EC50,[7],0.136 µM (active)
same,EC50,[8],> 60 µM (not active)
COC(=O)N1CCC2(CCN(C(=O)Nc3cccc(F)c3)CC2)CC1,AC50,[1]; read-out: AC50,5.01 µM (inconclusive)
Cc1n[nH]c(O)c1C(c1ccc(Br)cc1)c1c(C)n[nH]c1O,AC50,[2],0.588 µM (active)
same,EC50,[3],0.338 µM (active)
Cc1cc(C)n2nc(SCC(=O)N/N=C/c3ccccc3F)nc2n1,AC50,[1]; read-out: AC50,20 µM (inconclusive)
C/C(CC(=O)Nc1ccc(F)cc1)=N\NC(=O)COc1ccccc1,AC50,[2],10.3 µM (active)
same,EC50,[3],3.72 µM (active)
COc1cc(/C=N/NC(=O)c2cccs2)ccc1OCc1ccccc1,AC50,[9],15.8 µM (inconclusive)
CC1(C)S[C@@H]2[C@H](NC(=O)C(NC(=O)N3CCNC3=O)c3ccccc3)C(=O)N2[C@H]1C(=O)O (stereo not given in full),EC50,[4],< 0.06 µM (active)
same,EC50,[6],< 0.06 µM (active)
